Laboratory results reported in patent US10238670B2, “9-aminomethyl minocycline compounds and methods of use thereof in urinary tract infection (UTI) treatment” (Paratek Pharmaceuticals, Inc., priority 2016, dated 2019).

Legend:
Experiment in all cases: In vitro MIC, 2010 surveillance isolates
MS CoNS = format: cell-based, Coagulase-Negative Staphylococcus
E. cloacae CeftazS = format: cell-based
MRSA = format: cell-based
MSSA = format: cell-based
K. oxytoca = format: cell-based
MR CoNS = format: cell-based, Coagulase-Negative Staphylococcus
E. coli ESBL+ = format: cell-based, Escherichia coli
Enterobacter spp = format: cell-based
E. cloacae CeftazR = format: cell-based
E. coli ESBL− = format: cell-based, Escherichia coli
Acinetobacter spp = format: cell-based
K. pneumoniae ESBL− = format: cell-based, Klebsiella pneumoniae
K. pneumoniae ESBL+ = format: cell-based, Klebsiella pneumoniae
A. baumanii = format: cell-based

Gentamicin
% R (resistance) (MS CoNS; Asia/Pac, Eucast breakpoints): 33.3% | MIC90 (MS CoNS; Asia/Pac, N=18): 4 µg/mL | % R (resistance) (MS CoNS; Europe, Eucast breakpoints): 9.7% | MIC90 (MS CoNS; Europe, N=185): ≤ 1 µg/mL | % R (resistance) (MS CoNS; L. Amer, CLSI breakpoints): 7.5% | MIC90 (MS CoNS; L. Amer, N=67): 8 µg/mL | % R (resistance) (MS CoNS; N America, CLSI breakpoints): 2.1% | MIC90 (MS CoNS; N America, N=191): ≤ 1 µg/mL | % R (resistance) (E. cloacae CeftazS; Asia/Pac, Eucast breakpoints): 6% | MIC90 (E. cloacae CeftazS; Asia/Pac, N=100): ≤ 1 µg/mL | % R (resistance) (E. cloacae CeftazS; Europe, Eucast breakpoints): 1.1% | MIC90 (E. cloacae CeftazS; Europe, N=183): ≤ 1 µg/mL | % R (resistance) (E. cloacae CeftazS; L. Amer, CLSI breakpoints): 12.3% | MIC90 (E. cloacae CeftazS; L. Amer, N=57): > 8 µg/mL | % R (resistance) (E. cloacae CeftazS; N America, CLSI breakpoints): 0% | MIC90 (E. cloacae CeftazS; N America, N=210): ≤ 1 µg/mL | % R (resistance) (MRSA; Asia/Pac, Eucast breakpoints): 58.6% | MIC90 (MRSA; Asia/Pac, N=428): > 8 µg/mL | % R (resistance) (MRSA; Europe, Eucast breakpoints): 23.1% | MIC90 (MRSA; Europe, N=750): > 8 µg/mL | % R (resistance) (MRSA; L. Amer, CLSI breakpoints): 35.4% | MIC90 (MRSA; L. Amer, N=506): > 8 µg/mL | % R (resistance) (MRSA; N America, CLSI breakpoints): 3.7% | MIC90 (MRSA; N America, N=2508): ≤ 1 µg/mL | % R (resistance) (MSSA; Asia/Pac, Eucast breakpoints): 8.4% | MIC90 (MSSA; Asia/Pac, N=641): ≤ 1 µg/mL | % R (resistance) (MSSA; Europe, Eucast breakpoints): 2.7% | MIC90 (MSSA; Europe, N=2109): ≤ 1 µg/mL | % R (resistance) (MSSA; L. Amer, CLSI breakpoints): 1.9% | MIC90 (MSSA; L. Amer, N=590): ≤ 1 µg/mL | % R (resistance) (MSSA; N America, CLSI breakpoints): 0.7% | MIC90 (MSSA; N America, N=2373): ≤ 1 µg/mL | % R (resistance) (K. oxytoca; Asia/Pac, Eucast breakpoints): 17.6% | MIC90 (K. oxytoca; Asia/Pac, N=17): > 8 µg/mL | % R (resistance) (K. oxytoca; Europe, Eucast breakpoints): 8.2% | MIC90 (K. oxytoca; Europe, N=158): ≤ 1 µg/mL | % R (resistance) (K. oxytoca; L. Amer, CLSI breakpoints): 12% | MIC90 (K. oxytoca; L. Amer, N=25): > 8 µg/mL | % R (resistance) (K. oxytoca; N America, CLSI breakpoints): 2.3% | MIC90 (K. oxytoca; N America, N=177): ≤ 1 µg/mL | % R (resistance) (MR CoNS; Asia/Pac, Eucast breakpoints): 72.7% | MIC90 (MR CoNS; Asia/Pac, N=77): > 8 µg/mL | % R (resistance) (MR CoNS; Europe, Eucast breakpoints): 56.2% | MIC90 (MR CoNS; Europe, N=510): > 8 µg/mL | % R (resistance) (MR CoNS; L. Amer, CLSI breakpoints): 33.2% | MIC90 (MR CoNS; L. Amer, N=301): > 8 µg/mL | % R (resistance) (MR CoNS; N America, CLSI breakpoints): 22.6% | MIC90 (MR CoNS; N America, N=461): > 8 µg/mL | % R (resistance) (E. coli ESBL+; Asia/Pac, Eucast breakpoints): 58.9% | MIC90 (E. coli ESBL+; Asia/Pac, N=219): > 8 µg/mL | % R (resistance) (E. coli ESBL+; Europe, Eucast breakpoints): 40.5% | MIC90 (E. coli ESBL+; Europe, N=274): > 8 µg/mL | % R (resistance) (E. coli ESBL+; L. Amer, CLSI breakpoints): 39.3% | MIC90 (E. coli ESBL+; L. Amer, N=168): > 8 µg/mL | % R (resistance) (E. coli ESBL+; N America, CLSI breakpoints): 26.1% | MIC90 (E. coli ESBL+; N America, N=134): > 8 µg/mL | % R (resistance) (Enterobacter spp; Asia/Pac, Eucast breakpoints): 7.7% | MIC90 (Enterobacter spp; Asia/Pac, N=52): ≤ 1 µg/mL | % R (resistance) (Enterobacter spp; Europe, Eucast breakpoints): 4.9% | MIC90 (Enterobacter spp; Europe, N=82): ≤ 1 µg/mL | % R (resistance) (Enterobacter spp; L. Amer, CLSI breakpoints): 9.5% | MIC90 (Enterobacter spp; L. Amer, N=42): 2 µg/mL | MIC90 (Enterobacter spp; N America, N=101): ≤1 (1) | % R (resistance) (E. cloacae CeftazR; Asia/Pac, Eucast breakpoints): 39.7% | MIC90 (E. cloacae CeftazR; Asia/Pac, N=63): > 8 µg/mL | % R (resistance) (E. cloacae CeftazR; Europe, Eucast breakpoints): 43.1% | MIC90 (E. cloacae CeftazR; Europe, N=72): > 8 µg/mL | % R (resistance) (E. cloacae CeftazR; L. Amer, CLSI breakpoints): 38.1% | MIC90 (E. cloacae CeftazR; L. Amer, N=42): > 8 µg/mL | % R (resistance) (E. cloacae CeftazR; N America, CLSI breakpoints): 20.8% | MIC90 (E. cloacae CeftazR; N America, N=77): > 8 µg/mL | % R (resistance) (E. coli ESBL−; Asia/Pac, Eucast breakpoints): 16.3% | MIC90 (E. coli ESBL−; Asia/Pac, N=282): > 8 µg/mL | % R (resistance) (E. coli ESBL−; Europe, Eucast breakpoints): 7.4% | MIC90 (E. coli ESBL−; Europe, N=1533): 2 µg/mL | % R (resistance) (E. coli ESBL−; L. Amer, CLSI breakpoints): 9% | MIC90 (E. coli ESBL−; L. Amer, N=389): 2 µg/mL | % R (resistance) (E. coli ESBL−; N America, CLSI breakpoints): 7.7% | MIC90 (E. coli ESBL−; N America, N=1172): 2 µg/mL | % R (resistance) (Acinetobacter spp; Asia/Pac, Eucast breakpoints): 33.3% | % R (resistance) (Acinetobacter spp; Europe, Eucast breakpoints): 32.6% | MIC90 (Acinetobacter spp; Europe, N=43): > 8 µg/mL | % R (resistance) (Acinetobacter spp; L. Amer, CLSI breakpoints): 22.2% | % R (resistance) (Acinetobacter spp; N America, CLSI breakpoints): 14.3% | MIC90 (Acinetobacter spp; N America, N=42): > 8 µg/mL | % R (resistance) (K. pneumoniae ESBL−; Asia/Pac, Eucast breakpoints): 3.7% | MIC90 (K. pneumoniae ESBL−; Asia/Pac, N=189): ≤ 1 µg/mL | % R (resistance) (K. pneumoniae ESBL−; Europe, Eucast breakpoints): 2.2% | MIC90 (K. pneumoniae ESBL−; Europe, N=361): ≤ 1 µg/mL | % R (resistance) (K. pneumoniae ESBL−; L. Amer, CLSI breakpoints): 1.3% | MIC90 (K. pneumoniae ESBL−; L. Amer, N=160): ≤ 1 µg/mL | % R (resistance) (K. pneumoniae ESBL−; N America, CLSI breakpoints): 1.2% | MIC90 (K. pneumoniae ESBL−; N America, N=671): ≤ 1 µg/mL | % R (resistance) (K. pneumoniae ESBL+; Asia/Pac, Eucast breakpoints): 58.1% | MIC90 (K. pneumoniae ESBL+; Asia/Pac, N=124): > 8 µg/mL | % R (resistance) (K. pneumoniae ESBL+; Europe, Eucast breakpoints): 58.3% | MIC90 (K. pneumoniae ESBL+; Europe, N=151): > 8 µg/mL | % R (resistance) (K. pneumoniae ESBL+; L. Amer, CLSI breakpoints): 56.9% | MIC90 (K. pneumoniae ESBL+; L. Amer, N=209): > 8 µg/mL | % R (resistance) (K. pneumoniae ESBL+; N America, CLSI breakpoints): 46.3% | MIC90 (K. pneumoniae ESBL+; N America, N=108): > 8 µg/mL | % R (resistance) (A. baumanii; Asia/Pac, Eucast breakpoints): 80% | MIC90 (A. baumanii; Asia/Pac, N=275): > 8 µg/mL | % R (resistance) (A. baumanii; Europe, Eucast breakpoints): 61.4% | MIC90 (A. baumanii; Europe, N=145): > 8 µg/mL | % R (resistance) (A. baumanii; L. Amer, CLSI breakpoints): 52.4% | MIC90 (A. baumanii; L. Amer, N=275): > 8 µg/mL | % R (resistance) (A. baumanii; N America, CLSI breakpoints): 57.8% | MIC90 (A. baumanii; N America, N=154): > 8 µg/mL
